Experiments:
[1] = tested on: cyclin B1; test: Cyclin B1 silencing at protein (Western blotting) and mRNA (Quantigen) level; type: cell-based, Human; conditions: 200 nM siRNA complexed with VEPEP-6 at a 1/20 ratio
Procedure: FIGS. 6A-6C: VEPEP-6 dose response of Cyclin B1 silencing at the protein and mRNA levels on Hela (6A) and HS68 (6B) cells. Stock solution of VEPEP-6/siRNA ([…]) particles were prepared at a molar ratio of 1/20 (siRNA/VEPEP-6), and lower concentrations (from 200 nM to 0.125 nM) were obtained by serial dilution of the stock solution in PBS. HeLa (Panel A) and HS-68 (Panel B) cells (60% confluency) were overlaid with preformed complexes for 30 min, then fresh DMEM supplemented with 10% FCS was added directly to the cells, which were then returned to the incubator for 24 hrs. Cyclin B1 protein levels were determined by Western Blotting using Cdk2 as a control for quantification (white bars). Cyclin B1 mRNA levels were measured 12 hrs after transfection using Quantigen technology (black bars). Mismatched Cyc-B3 siRNA associated with VEPEP-6 (200 nM) and empty VEPEP-6 particles (20 μM) were used as a control. 6C: Dose-response of G2-arrest associated with Cyclin B1 silencing. HeLa (black bars) and HS68 (white bars) cells were treated with increasing concentrations of VEPEP-6/siRNA-Cyc-B1 from 0.25 nM to 20 nM. The cell cycle status was evaluated by FACS analysis. […]
Cyclin B1 mRNA and protein levels were determined 12 and 24 hrs following transduction, using Quantigen (Panomics Inc.) and Western blotting, respectively. […]

[2] = tested on: PC3 xenografted tumors; test: Tumour growth in PC3-xenografted mice, cyclin B1 siRNA; type: in vivo
Procedure: FIGS. 11A-11D: NANOPEP-6 Cyclin B1 siRNA delivery upon topical and systemic injection. Athymic female nude mice were subcutaneously inoculated into the flank with 1×10^6 PC3 (11A and 11B) or HT29 (11C and 11D). Two to three weeks after tumour implant, when tumour size reached about 100 mm^3, animals were treated by intratumoral (11A and 11C) injections, every 3 days, with a solution either saline buffer solution (closed triangle), free Cyc-B1 siRNA (open triangle), control siRNA Cyc-B3 (closed box) or Cyc-B1 siRNA at 5 μg (open circle) and 10 μg (closed circle) complexed with NANOPEP-6 at a 1/20 molar ratio. […] Tumour diameter was measured in two directions at regular intervals using a digital calliper and tumour volume was calculated as length×width×height×0.52. […]
Tumour diameter was measured in two directions at regular intervals using a digital calliper and tumour volume was calculated as length×width×height×0.52. […] The statistical significance of the results was calculated by Student's t test and p<0.05 considered to be statistically significant. […]
The potential of NANOPEP-6 (VEPEP6/VEPEP6) to deliver cyclin B1 siRNA in vivo was first evaluated on human prostate carcinoma cell PC3-xenografted mice (FIG. 11A). The effect of local intratumoral administration of NANOPEP-6/siRNA particles (molar ratio 20/1) on the growth of established subcutaneous tumours was evaluated. […]

“Cyc-B3: cyclin B1 siRNA harbouring two mismatches, control, SEQ ID No: 19/20 (chain 1 GGUGAAGAUCAGCAUGGCATT; chain 2 UGCCAUGUCGAUCUUCACCTT; chemistry not given here)” was tested. Which “effect on cyclin B1 levels and cell cycle progression” value [1] did it give?
The value was “no effect”.

What about the “inhibition of tumour growth” value ([2]; complexed with NANOPEP-6, 0.5 mg/kg) of the same substance?
The value was “unable to inhibit tumour growth”.

“naked siRNA: Cyc-B1 siRNA without carrier, SEQ ID No: 17/18 (chain 1 GGCGAAGAUCAACAUGGCATT; chain 2 UGCCAUGUUGAUCUUCGCCTT; chemistry not given here)” was tested. Which “effect on tumour growth” value ([2]; controls: naked siRNA 100 (intratumoral or intravenous), carrier alone) did it give?
Its value is “no significant effect”.
